Assay results: paper PMC8533986, “[^99mTc]Tc-DB15 in GRPR-Targeted Tumor Imaging with SPECT: From Preclinical Evaluation to the First Clinical Outcomes” (Cancers, 2021)

Key:
PC-3 cells = assay: Time-dependent uptake of [99mTc]Tc-DB15 in PC-3 cells; type: cell-based, human
Procedure: (§1) 2.5. Time-Dependent Uptake of [^99mTc]Tc-DB15 in PC-3 and T-47D Cells
(§2) One day before the experiment, PC-3 or T-47D cells were seeded in 6-well plates (≈1 × 10^6 cells per well). Next day, the cells were rinsed with ice-cold internalization medium (IM, RPMI-1640 GlutaMAX-I, supplemented by 1% (v/v) FBS). […] [^99mTc]Tc-DB15 (250 fmol total peptide in 150 µL 0.5% BSA-PBS) was added in all wells and the plates were incubated at for 15 min, 30 min, 1 h and 2 h at 37 °C in an Incubator-Orbital Shaker unit (MPM Instr. SrI, Bernareggio, MI, Italy). Cells were then placed on ice, the medium was collected, and the plates were rinsed with 0.5% BSA-PBS (1 mL). Membrane-bound fractions were collected after treatment in acid-wash solution (2 × 600 µL; 50 mM glycine buffer pH 2.8, 0.1 M NaCl). Internalized fractions were collected after treatment with 1 N NaOH (2 × 600 µL), as previously described. After counting of radioactivity of all collected fractions in the gamma counter, the percentage of specific internalized and membrane-bound fractions per time point were calculated with Microsoft Excel and the respective curves were drawn. Specific internalized and membrane-bound counts were determined by subtracting the respective non-specific from the respective total counts. Results represent specific internalized ±SD of total added radioactivity per well from three experiments performed in triplicate.

T-47D cells = assay: Time-dependent uptake of [99mTc]Tc-DB15 in T-47D cells; type: cell-based, human
Procedure: as §1, §2

BC patients = settings: two advanced BC patients, imaging 15 min-24 h pi
Procedure: Two BC patients were tested for the potential of pathological lesion detection after injection of [^99mTc]Tc-DB15.
A single dose of [^99mTc]Tc-DB15 (5-mL, 700–800 MBq corresponding to 20 μg DB15) was administered as a slow intravenous (iv) injection over 1 min. Vital signs (pulse rate, systolic and diastolic BP) were measured prior to the injection of [^99mTc]DB15 as well as within 15 min pi. Likewise, ECGs were performed prior to the injection, continuously during the injection and for 15 min pi. ECG and vital signs were measured again after the last scan was completed and blood tests for hematology and biochemistry (glucose, creatinine, bilirubin, transaminases, sodium, potassium, calcium) were performed. The laboratory evaluation was repeated 7, 14 and 28 days after imaging. Adverse events (AEs) were assessed and graded according to National Cancer Institute Common Toxicity Criteria for Adverse Events (CTCAE) Version 3.0.
Gamma camera imaging was performed on a Symbia Intevo Bold dual-head SPECT/CT scanner (Siemens Healthineers AG; Erlangen, Germany) equipped with a 16-slice CT scanner. Planar imaging of the whole body and SPECT/CT images of the thorax were obtained 15 min, 1 h, 3 h, and 24 h pi. Planar and SPECT/CT images were inspected for increased uptake by two experienced nuclear medicine specialists.

human GRPR = molecular target: T1, human GRPR (Homo sapiens, UniProt P30550); assay: Competition binding assay, displacement of [125I]I-[Tyr4]BBN from PC-3 cell membranes; settings: PC-3 cell membrane homogenates, 1 h at 22 °C, pH 7.4, mean ± SD of three experiments in triplicate, read-out: IC50, binding affinity for the human GRPR
T1 construct: displacement of the [^125I]I-[Tyr^4]BBN radioligand from freshly harvested PC-3 cell membranes; host or cells: PC-3 human prostate adenocarcinoma cells (membrane homogenate)
T1 sequence (P30550 whole entry): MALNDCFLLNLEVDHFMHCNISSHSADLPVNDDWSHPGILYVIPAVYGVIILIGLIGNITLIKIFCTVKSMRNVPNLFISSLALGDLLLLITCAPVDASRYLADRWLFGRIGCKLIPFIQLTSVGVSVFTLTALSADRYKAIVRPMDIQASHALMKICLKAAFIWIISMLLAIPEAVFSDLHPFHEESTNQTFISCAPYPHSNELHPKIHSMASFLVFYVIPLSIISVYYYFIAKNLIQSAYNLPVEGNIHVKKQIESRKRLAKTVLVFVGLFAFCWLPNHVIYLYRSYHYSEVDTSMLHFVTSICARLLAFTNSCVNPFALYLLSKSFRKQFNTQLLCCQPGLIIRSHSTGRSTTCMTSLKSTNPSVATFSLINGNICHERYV
Procedure: 2.4. Competition Binding Assays in PC-3 Cell-Membranes
Rapid filtration through glass fiber filters (Whatman GF/B, presoaked in binding buffer for at least 1 h) on a Brandel Cell Harvester (Adi Hassel Ingenieur Büro, Munich, Germany) and rinsing with ice-cold washing buffer (10 mM HEPES pH 7.4, 150 mM NaCl) followed. Filter radioactivity was measured in a gamma counter (automated multi-sample well-type instrument with a NaI(Tl) 3” crystal, Canberra Packard Cobra^TM Quantum U5003/1, Auto-Gamma® counting system). […] Values are expressed as mean ± standard deviation (SD) of three experiments performed in triplicate.

[1] = 30 min incubation, 37 °C, 250 fmol total peptide, mean ± SD, three experiments in triplicate
[2] = all time points (15 min-2 h), results not shown

Molecule | portion found within the cells (internalized) (PC-3 cells; 37 °C) | specific cell uptake (cell-associated fraction of total added activity) (PC-3 cells; [1]) | cell association in the presence of 1 μM [Tyr4]BBN (PC-3 cells; [2]) | portion found within the cells (internalized) (T-47D cells; 37 °C) | specific cell uptake (cell-associated fraction of total added activity) (T-47D cells; [1]) | cell association in the presence of 1 μM [Tyr4]BBN (T-47D cells; [2]) | Pathological findings on planar and SPECT/CT images (BC patients) | IC50 (human GRPR)
[^99mTc]Tc-N4-AMA-DGA-DPhe^6,Sar^11,LeuNHEt^13]BBN(6-13) [[^99mTc]Tc-DB15] | < 6% | 13.1 ± 0.1% | < 0.9% | < 6% | 24.2 ± 0.7% | < 0.9% | increased uptake of [^99mTc]Tc-DB15 in the BC metastases in both patients | 
CCNC(=O)[C@H](CC(C)C)NC(=O)[C@H](Cc1c[nH]cn1)NC(=O)CN(C)C(=O)[C@@H](NC(=O)[C@H](C)NC(=O)[C@H](Cc1c[nH]c2ccccc12)NC(=O)[C@H](CCC(N)=O)NC(=O)[C@@H](Cc1ccccc1)NC(=O)COCC(=O)Nc1ccc(CNC(=O)C(CNCCN)CNCCN)cc1)C(C)C [DB15, N4-AMA-DGA-DPhe^6,Sar^11,LeuNHEt^13]BBN(6-13)] |  |  |  |  |  |  |  | 0.37 ± 0.03 nM
